The source of these data is US11123337B2, “4-methylsulfonyl-substituted piperidine urea compounds” (MYOKARDIA, INC., priority 2015, dated 2021).

Sequence of bovine cardiac myosin (Q9BE39 whole entry): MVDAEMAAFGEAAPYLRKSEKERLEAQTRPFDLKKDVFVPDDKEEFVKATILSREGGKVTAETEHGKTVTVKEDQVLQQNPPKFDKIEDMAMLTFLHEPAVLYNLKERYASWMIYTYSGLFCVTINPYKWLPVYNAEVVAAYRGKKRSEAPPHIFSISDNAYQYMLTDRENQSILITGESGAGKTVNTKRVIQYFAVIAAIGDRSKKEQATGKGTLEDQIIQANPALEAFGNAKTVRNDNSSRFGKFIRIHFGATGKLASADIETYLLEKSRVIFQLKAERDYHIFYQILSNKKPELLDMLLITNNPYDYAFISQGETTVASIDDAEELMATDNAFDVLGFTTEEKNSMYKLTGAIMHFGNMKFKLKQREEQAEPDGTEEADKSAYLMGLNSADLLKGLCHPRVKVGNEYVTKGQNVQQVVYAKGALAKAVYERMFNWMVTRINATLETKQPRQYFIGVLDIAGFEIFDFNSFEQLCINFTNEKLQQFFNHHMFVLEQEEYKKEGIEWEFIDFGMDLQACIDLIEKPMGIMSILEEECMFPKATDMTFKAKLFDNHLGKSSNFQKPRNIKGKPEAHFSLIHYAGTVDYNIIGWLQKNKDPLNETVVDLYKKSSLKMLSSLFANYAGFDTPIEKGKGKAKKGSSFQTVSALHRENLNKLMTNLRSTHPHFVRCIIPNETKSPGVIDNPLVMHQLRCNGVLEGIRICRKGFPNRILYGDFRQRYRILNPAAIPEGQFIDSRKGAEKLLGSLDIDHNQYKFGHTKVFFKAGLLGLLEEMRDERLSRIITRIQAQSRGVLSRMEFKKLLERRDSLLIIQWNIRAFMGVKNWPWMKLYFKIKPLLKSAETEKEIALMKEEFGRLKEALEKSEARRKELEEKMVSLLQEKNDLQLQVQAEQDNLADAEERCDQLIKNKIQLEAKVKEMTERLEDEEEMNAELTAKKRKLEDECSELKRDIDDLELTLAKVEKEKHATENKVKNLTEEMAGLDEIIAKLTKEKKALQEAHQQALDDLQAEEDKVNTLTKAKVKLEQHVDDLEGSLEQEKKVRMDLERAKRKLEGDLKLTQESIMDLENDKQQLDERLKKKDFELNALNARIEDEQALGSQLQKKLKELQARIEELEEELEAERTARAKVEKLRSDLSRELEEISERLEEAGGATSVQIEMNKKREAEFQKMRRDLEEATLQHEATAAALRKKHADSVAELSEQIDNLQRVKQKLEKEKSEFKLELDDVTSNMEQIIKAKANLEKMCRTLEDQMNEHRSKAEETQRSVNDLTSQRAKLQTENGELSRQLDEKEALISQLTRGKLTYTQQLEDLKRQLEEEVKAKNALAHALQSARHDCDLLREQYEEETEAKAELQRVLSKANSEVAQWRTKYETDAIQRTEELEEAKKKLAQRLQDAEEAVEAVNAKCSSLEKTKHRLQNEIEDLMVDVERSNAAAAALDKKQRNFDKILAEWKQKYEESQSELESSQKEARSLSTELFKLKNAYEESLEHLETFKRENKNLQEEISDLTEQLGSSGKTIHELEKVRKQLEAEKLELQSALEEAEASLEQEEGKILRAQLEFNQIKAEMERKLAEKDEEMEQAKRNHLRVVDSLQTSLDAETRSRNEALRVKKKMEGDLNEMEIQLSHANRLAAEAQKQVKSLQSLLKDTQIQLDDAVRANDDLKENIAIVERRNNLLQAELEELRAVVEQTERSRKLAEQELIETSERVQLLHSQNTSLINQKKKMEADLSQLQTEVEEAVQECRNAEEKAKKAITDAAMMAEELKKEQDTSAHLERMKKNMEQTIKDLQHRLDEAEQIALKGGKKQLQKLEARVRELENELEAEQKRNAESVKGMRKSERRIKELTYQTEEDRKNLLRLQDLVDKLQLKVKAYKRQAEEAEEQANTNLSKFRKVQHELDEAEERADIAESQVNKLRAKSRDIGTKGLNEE
Sequence of bovine cardiac myosin (P85100 whole entry partner): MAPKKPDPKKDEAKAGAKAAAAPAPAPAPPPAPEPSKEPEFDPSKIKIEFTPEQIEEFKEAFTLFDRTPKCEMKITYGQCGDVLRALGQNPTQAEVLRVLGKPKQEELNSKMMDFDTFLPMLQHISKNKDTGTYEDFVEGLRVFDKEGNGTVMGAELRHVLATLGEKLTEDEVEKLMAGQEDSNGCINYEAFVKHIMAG
Sequence of bovine cardiac myosin (Q3SZE5 whole entry partner): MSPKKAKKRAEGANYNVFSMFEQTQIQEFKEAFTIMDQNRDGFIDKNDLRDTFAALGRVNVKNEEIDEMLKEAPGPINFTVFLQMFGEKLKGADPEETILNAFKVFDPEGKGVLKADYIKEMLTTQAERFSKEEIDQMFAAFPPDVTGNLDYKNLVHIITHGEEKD

For the test, the target named is bovine cardiac myosin (Bos taurus, UniProt Q9BE39). The test can be described thus: Myosin activation assay (PK/LDH-coupled ATPase, bovine cardiac myofibrils). The settings on record: AC20 = concentration at which total response is increased by twenty percent. The format is biochemical. In outline:
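Skinned bovine cardiac myofibrils (1 mg/mL) in PIPES/MgCl2 buffer pH 6.8 at free Ca2+ giving ~50% (pCa ~6) or <5% (pCa 10) activation, with 50 μM ATP and 3.3% DMSO. ATPase rate from NADH absorbance at 340 nm (PK/LDH coupling) over 15 min at ambient temperature. AC20/AC50 from a four-parameter fit of DMSO-normalised rates.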
For `CC(F)(C1CCN(C(=O)Nc2ccnnc2)CC1)S(=O)(=O)c1ccc(C#N)cc1` (stereo not shown) [Compound 270, 4-(1-((4-cyanophenyl)sulfonyl)-1-fluoroethyl)-N-(pyridazin-4-yl)piperidine-1-carboxamide], the “Myosin Activation (AC20)” value is reported as “+++ (+++ represents myosin activation value AC20 < 2 μM)”.

`N#Cc1ccc(S(=O)(=O)C(F)(F)C2CCN(C(=O)Nc3ccnnc3)CC2)c(Cl)c1` [Compound 76, 4-(((2-chloro-4-cyanophenyl)sulfonyl)difluoromethyl)-N-(pyridazin-4-yl)piperidine-1-carboxamide]: the “Myosin Activation (AC20)” value was “++ (++ represents myosin activation value AC20 from 2 μM-5 μM)”.

Regarding `Cc1ccccc1S(=O)(=O)CC1CCN(C(=O)Nc2ccncc2)CC1` [Compound 39, N-(pyridin-4-yl)-4-((o-tolylsulfonyl)methyl)piperidine-1-carboxamide], the “Myosin Activation (AC20)” value is “+ (+ represents myosin activation value AC20 > 5 μM)”.

`Cn1nc(C(F)F)cc1S(=O)(=O)C(C)(F)C1CCN(C(=O)Nc2ccnnc2)CC1` (stereo not shown) [Compound 17, 4-(1-((3-(difluoromethyl)-1-methyl-1H-pyrazol-5-yl)sulfonyl)-1-fluoroethyl)-N-(pyridazin-4-yl)piperidine-1-carboxamide]: the “Myosin Activation (AC20)” value is on record as “+++ (+++ represents myosin activation value AC20 < 2 μM)”.

Turning to `Cn1cc(S(=O)(=O)C(C)(F)C2CCN(C(=O)Nc3ccon3)CC2)c(Cl)n1` (stereo not shown) [Compound 19, 4-(1-((3-Chloro-1-methyl-1H-pyrazol-4-yl)sulfonyl)-1-fluoroethyl)-N-(isoxazol-3-yl)piperidine-1-carboxamide], the “Myosin Activation (AC20)” value is given as “+ (+ represents myosin activation value AC20 > 5 μM)”.

In the case of `CC(C)(C1CCN(C(=O)Nc2ccns2)CC1)S(=O)(=O)c1cccc(F)c1` [Compound 218, 4-(2-((3-fluorophenyl)sulfonyl)propan-2-yl)-N-(isothiazol-5-yl)piperidine-1-carboxamide], the “Myosin Activation (AC20)” value is given as “++ (++ represents myosin activation value AC20 from 2 μM-5 μM)”.

In the case of `Cn1ncc2c(S(=O)(=O)C(F)(F)C3CCN(C(=O)Nc4ccnnc4)CC3)cccc21` [Compound 66, 4-(difluoro((1-methyl-1H-indazol-4-yl)sulfonyl)methyl)-N-(pyridazin-4-yl)piperidine-1-carboxamide], the “Myosin Activation (AC20)” value is given as “++ (++ represents myosin activation value AC20 from 2 μM-5 μM)”.

As for `CC(C)(C1CCN(C(=O)Nc2ccc(F)nc2)CC1)S(=O)(=O)c1ccc(C(F)(F)F)nc1` [Compound 104, N-(6-fluoropyridin-3-yl)-4-(2-((6-(trifluoromethyl)pyridin-3-yl)sulfonyl)propan-2-yl)piperidine-1-carboxamide], the “Myosin Activation (AC20)” value is on record as “+ (+ represents myosin activation value AC20 > 5 μM)”.

For `COc1ccccc1S(=O)(=O)C(F)(F)C1CCN(C(=O)Nc2ccnnc2)CC1` [Compound 62, 4-(difluoro((2-methoxyphenyl)sulfonyl)methyl)-N-(pyridazin-4-yl)piperidine-1-carboxamide], the “Myosin Activation (AC20)” value was “+ (+ represents myosin activation value AC20 > 5 μM)”.

With `O=C(Nc1ccncc1)N1CCC(C2(S(=O)(=O)c3cccc(F)c3)CC2)CC1` [Compound 35, 4-(1-((3-fluorophenyl)sulfonyl)cyclopropyl)-N-(pyridin-4-yl)piperidine-1-carboxamide], the “Myosin Activation (AC20)” value is given as “+++ (+++ represents myosin activation value AC20 < 2 μM)”.

With `Cc1ccc(S(=O)(=O)C(F)(F)C2CCN(C(=O)Nc3ccnnc3)CC2)cn1` [Compound 50, 4-(difluoro((6-methylpyridin-3-yl)sulfonyl)methyl)-N-(pyridazin-4-yl)piperidine-1-carboxamide], the “Myosin Activation (AC20)” value was “++ (++ represents myosin activation value AC20 from 2 μM-5 μM)”.

With `Cc1cc(C(F)(F)F)ccc1S(=O)(=O)C(F)(F)C1CCN(C(=O)Nc2ccnnc2)CC1` [Compound 65, 4-(difluoro((2-methyl-4-(trifluoromethyl)phenyl)sulfonyl)methyl)-N-(pyridazin-4-yl)piperidine-1-carboxamide], the “Myosin Activation (AC20)” value is listed as “++ (++ represents myosin activation value AC20 from 2 μM-5 μM)”.

Consider `Cn1nc(C(F)F)cc1S(=O)(=O)C(C)(C)C1CCN(C(=O)Nc2ccnc(F)c2)CC1` [Compound 105, 4-(2-((3-(difluoromethyl)-1-methyl-1H-pyrazol-5-yl)sulfonyl)propan-2-yl)-N-(2-fluoropyridin-4-yl)piperidine-1-carboxamide], for which the “Myosin Activation (AC20)” value is “+++ (+++ represents myosin activation value AC20 < 2 μM)”.

As to `Cc1ccc(NC(=O)N2CCC([C@@](C)(F)S(=O)(=O)c3cn(C)nc3C(F)F)CC2)cn1` [Compound 258, (S)-4-(1-((3-(difluoromethyl)-1-methyl-1H-pyrazol-4-yl)sulfonyl)-1-fluoroethyl)-N-(6-methylpyridin-3-yl)piperidine-1-carboxamide], the “Myosin Activation (AC20)” value was “+ (+ represents myosin activation value AC20 > 5 μM)”.

As for `CC(C)(C1CCN(C(=O)Nc2ccc(F)nc2)CC1)S(=O)(=O)c1ccc(C#N)cc1` [Compound 109, 4-(2-((4-cyanophenyl)sulfonyl)propan-2-yl)-N-(6-fluoropyridin-3-yl)piperidine-1-carboxamide], the “Myosin Activation (AC20)” value is “+ (+ represents myosin activation value AC20 > 5 μM)”.

In the case of `Cn1cc(S(=O)(=O)C(F)(F)C2CCN(C(=O)Nc3ccnc(F)c3)CC2)c(C(F)F)n1` [Compound 79, 4-(((3-(difluoromethyl)-1-methyl-1H-pyrazol-4-yl)sulfonyl)difluoromethyl)-N-(2-fluoropyridin-4-yl)piperidine-1-carboxamide], the “Myosin Activation (AC20)” value was “+ (+ represents myosin activation value AC20 > 5 μM)”.

On to `Cn1nc(Cl)cc1S(=O)(=O)C(C)(C)C1CCN(C(=O)Nc2ccc(F)nc2)CC1` [Compound 114, 4-(2-((3-chloro-1-methyl-1H-pyrazol-5-yl)sulfonyl)propan-2-yl)-N-(6-fluoropyridin-3-yl)piperidine-1-carboxamide], for which the “Myosin Activation (AC20)” value was “+++ (+++ represents myosin activation value AC20 < 2 μM)”.

For the compound `CC(F)(C1CCN(C(=O)Nc2cnns2)CC1)S(=O)(=O)c1ccc(C(F)(F)F)cc1` (stereo not shown) [Compound 268, 4-(1-fluoro-1-((4-(trifluoromethyl)phenyl)sulfonyl)ethyl)-N-(1,2,3-thiadiazol-5-yl)piperidine-1-carboxamide], the “Myosin Activation (AC20)” value was “+++ (+++ represents myosin activation value AC20 < 2 μM)”.

For `Cn1cc(S(=O)(=O)C(C)(C)C2CCN(C(=O)Nc3nnco3)CC2)c(C(F)F)n1` [Compound 145, 4-(2-((3-(difluoromethyl)-1-methyl-1H-pyrazol-4-yl)sulfonyl)propan-2-yl)-N-(1,3,4-oxadiazol-2-yl)piperidine-1-carboxamide], the “Myosin Activation (AC20)” value is “+ (+ represents myosin activation value AC20 > 5 μM)”.

For the compound `Cn1cc(S(=O)(=O)[C@](C)(F)C2CCN(C(=O)Nc3ccnc(F)c3)CC2)c(C(F)F)n1` [Compound 231, (S)-4-(1-((3-(difluoromethyl)-1-methyl-1H-pyrazol-4-yl)sulfonyl)-1-fluoroethyl)-N-(2-fluoropyridin-4-yl)piperidine-1-carboxamide], the “Myosin Activation (AC20)” value is reported as “+ (+ represents myosin activation value AC20 > 5 μM)”.

For `CC(F)(C1CCN(C(=O)Nc2ccon2)CC1)S(=O)(=O)c1ccc(C(F)(F)F)cc1` (stereo not shown) [Compound 8, 4-(1-Fluoro-1-((4-(trifluoromethyl)phenyl)sulfonyl)ethyl)-N-(isoxazol-3-yl)piperidine-1-carboxamide], the “Myosin Activation (AC20)” value is given as “+++ (+++ represents myosin activation value AC20 < 2 μM)”.

For `Cn1nccc1S(=O)(=O)C(C)(C)C1CCN(C(=O)Nc2cnns2)CC1` [Compound 193, 4-(2-((1-methyl-1H-pyrazol-5-yl)sulfonyl)propan-2-yl)-N-(1,2,3-thiadiazol-5-yl)piperidine-1-carboxamide], the “Myosin Activation (AC20)” value is given as “+++ (+++ represents myosin activation value AC20 < 2 μM)”.

Regarding `Cn1ccc(NC(=O)N2CCC(C(C)(C)S(=O)(=O)c3cccc(F)c3)CC2)n1` [Compound 138, 4-(2-((3-fluorophenyl)sulfonyl)propan-2-yl)-N-(1-methyl-1H-pyrazol-3-yl)piperidine-1-carboxamide], the “Myosin Activation (AC20)” value is recorded as “+ (+ represents myosin activation value AC20 > 5 μM)”.

Take `CC(F)(C1CCN(C(=O)Nc2cnns2)CC1)S(=O)(=O)c1cccc(F)c1` (stereo not shown) [Compound 45, 4-(1-fluoro-1-((3-fluorophenyl)sulfonyl)ethyl)-N-(1,2,3-thiadiazol-5-yl)piperidine-1-carboxamide]: the “Myosin Activation (AC20)” value is “+++ (+++ represents myosin activation value AC20 < 2 μM)”.

For the compound `Cc1cc(OC(F)(F)F)ccc1S(=O)(=O)C(F)(F)C1CCN(C(=O)Nc2ccnnc2)CC1` [Compound 73, 4-(difluoro((2-methyl-4-(trifluoromethoxy)phenyl)sulfonyl)methyl)-N-(pyridazin-4-yl)piperidine-1-carboxamide], the “Myosin Activation (AC20)” value is “++ (++ represents myosin activation value AC20 from 2 μM-5 μM)”.

For `Cc1ccccc1S(=O)(=O)C(C)(F)C1CCN(C(=O)Nc2ccnnc2)CC1` (stereo not shown) [Compound 53, 4-(1-fluoro-1-(o-tolylsulfonyl)ethyl)-N-(pyridazin-4-yl)piperidine-1-carboxamide], the “Myosin Activation (AC20)” value is reported as “+++ (+++ represents myosin activation value AC20 < 2 μM)”.

As for `Cn1nccc1S(=O)(=O)C(C)(F)C1CCN(C(=O)Nc2cnns2)CC1` (stereo not shown) [Compound 267, 4-(1-fluoro-1-((1-methyl-1H-pyrazol-5-yl)sulfonyl)ethyl)-N-(1,2,3-thiadiazol-5-yl)piperidine-1-carboxamide], the “Myosin Activation (AC20)” value is listed as “+++ (+++ represents myosin activation value AC20 < 2 μM)”.

Regarding `CCn1nccc1S(=O)(=O)C(C)(F)C1CCN(C(=O)Nc2ccnnc2)CC1` (stereo not shown) [Compound 269, 4-(1-((1-ethyl-1H-pyrazol-5-yl)sulfonyl)-1-fluoroethyl)-N-(pyridazin-4-yl)piperidine-1-carboxamide], the “Myosin Activation (AC20)” value is given as “++ (++ represents myosin activation value AC20 from 2 μM-5 μM)”.
